According to the kinase profiling compilation of Christmann-Franck et al. (2016):

Tests used:
Experiment in all cases: KINOMEscan competition binding
Conditions in all cases: compound 10.0 µM
[1] = biological target: FLT4 (human) (UniProt P35916)
[2] = biological target: MYLK3 (human) (UniProt Q32MK0)
[3] = biological target: MAP3K5 (human) (UniProt Q99683)
[4] = biological target: DAPK3 (human) (UniProt O43293)
[5] = biological target: PAK1 (human) (UniProt Q13153)
[6] = biological target: ZAP70 (human) (UniProt P43403)
[7] = biological target: AXL (human) (UniProt P30530)
[8] = biological target: FGFR4 (human) (UniProt P22455)
[9] = biological target: MAP4K5 (human) (UniProt Q9Y4K4)
[10] = biological target: CLK1 (human) (UniProt P49759)
[11] = biological target: PHKG2 (human) (UniProt P15735)
[12] = biological target: ADCK3 (human) (UniProt Q8NI60)
[13] = biological target: CDC2L2 (human) (UniProt Q9UQ88)
[14] = biological target: PIK3CG (human) (UniProt P48736)
[15] = biological target: CIT (human) (UniProt O14578)
[16] = biological target: BMPR1B (human) (UniProt O00238)
[17] = biological target: TEC (human) (UniProt P42680)
[18] = biological target: EPHA7 (human) (UniProt Q15375)
[19] = biological target: HIPK1 (human) (UniProt Q86Z02)
[20] = biological target: RET (human) (UniProt P07949)
[21] = biological target: MAP3K10 (human) (UniProt Q02779)
[22] = biological target: STK11 (human) (UniProt Q15831)
[23] = biological target: PIK3CA (human) (UniProt P42336)
[24] = biological target: MAPK12 (human) (UniProt P53778)
[25] = biological target: PTK6 (human) (UniProt Q13882)
[26] = biological target: MAPK4 (human) (UniProt P31152)
[27] = biological target: BMPR1A (human) (UniProt P36894)
[28] = biological target: MAPK7 (human) (UniProt Q13164)
[29] = biological target: PRKAA2 (human) (UniProt P54646)
[30] = biological target: KDR (human) (UniProt P35968)
[31] = biological target: BRSK2 (human) (UniProt Q8IWQ3)
[32] = biological target: PRKAA1 (human) (UniProt Q13131)
[33] = biological target: TIE1 (human) (UniProt P35590)
[34] = biological target: EPHA3 (human) (UniProt P29320)
[35] = biological target: PLK1 (human) (UniProt P53350)
[36] = biological target: TNIK (human) (UniProt Q9UKE5)

Chain of MAP4K5 (human) (Q9Y4K4 whole entry, looked up): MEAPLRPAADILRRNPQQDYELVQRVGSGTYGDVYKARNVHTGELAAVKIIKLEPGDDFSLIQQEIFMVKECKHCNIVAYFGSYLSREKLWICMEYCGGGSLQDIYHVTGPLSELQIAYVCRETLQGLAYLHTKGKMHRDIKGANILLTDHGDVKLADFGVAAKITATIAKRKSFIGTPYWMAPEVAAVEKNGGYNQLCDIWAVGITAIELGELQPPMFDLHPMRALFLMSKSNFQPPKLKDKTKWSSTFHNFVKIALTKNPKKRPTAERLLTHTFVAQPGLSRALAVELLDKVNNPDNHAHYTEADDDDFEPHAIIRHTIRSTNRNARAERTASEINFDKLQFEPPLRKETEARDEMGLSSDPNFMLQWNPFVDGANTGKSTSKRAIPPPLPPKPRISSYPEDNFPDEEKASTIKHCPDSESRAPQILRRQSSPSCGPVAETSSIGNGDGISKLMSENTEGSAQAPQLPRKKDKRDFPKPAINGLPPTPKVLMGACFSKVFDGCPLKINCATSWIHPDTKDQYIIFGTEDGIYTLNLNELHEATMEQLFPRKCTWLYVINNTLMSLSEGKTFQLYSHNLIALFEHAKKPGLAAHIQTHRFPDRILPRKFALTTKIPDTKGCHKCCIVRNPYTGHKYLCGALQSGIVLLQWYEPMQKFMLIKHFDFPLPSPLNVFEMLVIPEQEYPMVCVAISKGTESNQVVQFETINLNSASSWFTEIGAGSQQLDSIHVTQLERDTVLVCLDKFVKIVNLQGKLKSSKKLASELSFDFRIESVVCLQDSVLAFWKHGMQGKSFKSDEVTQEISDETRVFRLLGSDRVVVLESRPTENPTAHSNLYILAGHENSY
Chain of PRKAA1 (human) (Q13131 whole entry, looked up): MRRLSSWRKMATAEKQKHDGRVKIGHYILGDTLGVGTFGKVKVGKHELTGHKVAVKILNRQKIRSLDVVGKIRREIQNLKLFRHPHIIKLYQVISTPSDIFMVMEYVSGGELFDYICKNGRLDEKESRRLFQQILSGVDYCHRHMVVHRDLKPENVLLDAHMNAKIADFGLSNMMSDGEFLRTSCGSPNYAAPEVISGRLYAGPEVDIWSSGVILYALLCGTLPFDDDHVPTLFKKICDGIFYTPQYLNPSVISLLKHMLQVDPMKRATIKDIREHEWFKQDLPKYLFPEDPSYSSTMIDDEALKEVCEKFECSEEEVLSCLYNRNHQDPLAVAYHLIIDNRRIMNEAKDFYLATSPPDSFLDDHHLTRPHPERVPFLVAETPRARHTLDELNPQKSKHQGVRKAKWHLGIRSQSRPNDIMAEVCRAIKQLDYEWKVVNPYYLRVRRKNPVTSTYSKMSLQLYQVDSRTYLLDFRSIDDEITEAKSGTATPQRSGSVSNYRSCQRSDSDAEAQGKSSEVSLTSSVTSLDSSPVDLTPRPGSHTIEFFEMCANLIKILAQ
Chain of MAPK4 (human) (P31152 whole entry, looked up): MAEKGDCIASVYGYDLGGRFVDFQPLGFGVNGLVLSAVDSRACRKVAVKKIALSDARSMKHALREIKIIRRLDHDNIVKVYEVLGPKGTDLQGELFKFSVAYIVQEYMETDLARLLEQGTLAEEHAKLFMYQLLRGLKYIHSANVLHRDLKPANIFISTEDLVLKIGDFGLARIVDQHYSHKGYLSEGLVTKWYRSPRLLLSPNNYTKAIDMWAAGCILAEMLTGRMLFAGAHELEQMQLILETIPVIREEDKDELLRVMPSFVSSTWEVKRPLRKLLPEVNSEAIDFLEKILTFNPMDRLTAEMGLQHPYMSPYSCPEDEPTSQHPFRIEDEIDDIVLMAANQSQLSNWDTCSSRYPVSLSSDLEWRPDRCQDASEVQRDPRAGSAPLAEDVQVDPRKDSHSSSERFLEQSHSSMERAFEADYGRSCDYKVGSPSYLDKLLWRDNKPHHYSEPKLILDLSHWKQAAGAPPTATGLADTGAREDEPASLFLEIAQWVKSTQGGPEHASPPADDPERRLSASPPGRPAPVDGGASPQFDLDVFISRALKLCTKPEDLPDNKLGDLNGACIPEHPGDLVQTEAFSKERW
Chain of CDC2L2 (human) (Q9UQ88 whole entry, looked up): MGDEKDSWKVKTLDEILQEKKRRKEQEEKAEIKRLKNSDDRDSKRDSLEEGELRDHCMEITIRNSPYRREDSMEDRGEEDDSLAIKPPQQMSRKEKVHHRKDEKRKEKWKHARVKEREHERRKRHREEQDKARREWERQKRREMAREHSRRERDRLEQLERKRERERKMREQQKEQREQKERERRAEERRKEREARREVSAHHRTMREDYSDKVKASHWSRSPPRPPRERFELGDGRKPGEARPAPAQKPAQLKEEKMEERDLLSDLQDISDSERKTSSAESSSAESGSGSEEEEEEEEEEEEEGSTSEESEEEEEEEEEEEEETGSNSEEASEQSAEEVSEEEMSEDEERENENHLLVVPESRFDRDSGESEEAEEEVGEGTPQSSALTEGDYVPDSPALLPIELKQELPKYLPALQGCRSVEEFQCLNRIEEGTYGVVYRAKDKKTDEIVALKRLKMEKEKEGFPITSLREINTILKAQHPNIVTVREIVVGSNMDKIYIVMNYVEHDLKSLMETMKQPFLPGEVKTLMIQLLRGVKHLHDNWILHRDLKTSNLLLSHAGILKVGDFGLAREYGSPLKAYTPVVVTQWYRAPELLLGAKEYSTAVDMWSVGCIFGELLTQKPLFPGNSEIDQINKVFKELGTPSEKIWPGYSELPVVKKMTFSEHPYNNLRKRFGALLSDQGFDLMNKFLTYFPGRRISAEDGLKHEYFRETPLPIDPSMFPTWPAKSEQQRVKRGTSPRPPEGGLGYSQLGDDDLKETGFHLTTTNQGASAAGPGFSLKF
Chain of TEC (human) (P42680 whole entry, looked up): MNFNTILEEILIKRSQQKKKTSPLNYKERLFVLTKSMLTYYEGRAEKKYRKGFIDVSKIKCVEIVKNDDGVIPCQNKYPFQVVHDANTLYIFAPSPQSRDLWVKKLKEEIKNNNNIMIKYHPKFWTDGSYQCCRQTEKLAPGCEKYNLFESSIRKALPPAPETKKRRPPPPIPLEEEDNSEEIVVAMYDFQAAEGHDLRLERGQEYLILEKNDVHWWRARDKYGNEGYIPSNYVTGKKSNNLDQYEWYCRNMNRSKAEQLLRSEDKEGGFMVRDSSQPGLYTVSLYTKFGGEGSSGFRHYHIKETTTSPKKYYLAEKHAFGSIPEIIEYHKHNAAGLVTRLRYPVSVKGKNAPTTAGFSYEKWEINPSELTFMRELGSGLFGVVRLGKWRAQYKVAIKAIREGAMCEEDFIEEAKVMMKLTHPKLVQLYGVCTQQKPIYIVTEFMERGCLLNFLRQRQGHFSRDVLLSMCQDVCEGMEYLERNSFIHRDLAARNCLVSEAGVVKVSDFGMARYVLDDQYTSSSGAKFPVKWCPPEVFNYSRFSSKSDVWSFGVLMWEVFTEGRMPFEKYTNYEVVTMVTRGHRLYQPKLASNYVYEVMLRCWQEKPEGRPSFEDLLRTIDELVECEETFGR
Chain of TIE1 (human) (P35590 whole entry, looked up): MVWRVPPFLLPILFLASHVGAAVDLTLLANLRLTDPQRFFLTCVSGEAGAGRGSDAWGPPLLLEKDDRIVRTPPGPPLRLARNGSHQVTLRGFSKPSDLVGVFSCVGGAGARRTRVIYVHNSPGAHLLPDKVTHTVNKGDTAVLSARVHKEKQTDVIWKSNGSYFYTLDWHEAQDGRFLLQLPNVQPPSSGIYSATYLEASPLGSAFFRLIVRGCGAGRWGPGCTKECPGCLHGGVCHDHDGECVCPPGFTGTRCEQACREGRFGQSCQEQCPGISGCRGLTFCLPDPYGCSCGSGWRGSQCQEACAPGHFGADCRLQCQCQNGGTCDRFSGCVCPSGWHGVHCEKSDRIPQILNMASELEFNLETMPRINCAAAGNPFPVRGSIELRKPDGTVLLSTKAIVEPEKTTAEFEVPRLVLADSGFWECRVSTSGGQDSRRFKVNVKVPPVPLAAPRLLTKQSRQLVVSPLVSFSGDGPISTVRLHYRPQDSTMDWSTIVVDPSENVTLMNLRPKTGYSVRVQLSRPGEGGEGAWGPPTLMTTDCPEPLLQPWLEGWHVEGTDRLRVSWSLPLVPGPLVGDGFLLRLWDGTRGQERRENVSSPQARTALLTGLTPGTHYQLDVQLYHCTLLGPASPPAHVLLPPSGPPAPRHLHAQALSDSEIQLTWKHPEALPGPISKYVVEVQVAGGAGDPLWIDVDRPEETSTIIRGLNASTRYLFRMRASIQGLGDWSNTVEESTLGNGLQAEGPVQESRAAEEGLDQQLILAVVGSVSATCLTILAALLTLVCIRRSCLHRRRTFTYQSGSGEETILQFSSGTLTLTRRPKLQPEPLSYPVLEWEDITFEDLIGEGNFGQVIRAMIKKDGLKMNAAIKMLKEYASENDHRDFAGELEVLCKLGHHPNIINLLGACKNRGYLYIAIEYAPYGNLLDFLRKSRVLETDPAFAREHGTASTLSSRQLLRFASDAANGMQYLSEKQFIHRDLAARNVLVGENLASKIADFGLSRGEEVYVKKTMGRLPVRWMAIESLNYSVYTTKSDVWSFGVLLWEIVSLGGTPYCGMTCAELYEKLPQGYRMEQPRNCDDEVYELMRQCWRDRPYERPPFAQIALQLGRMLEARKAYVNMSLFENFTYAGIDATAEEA
Chain of DAPK3 (human) (O43293 whole entry, looked up): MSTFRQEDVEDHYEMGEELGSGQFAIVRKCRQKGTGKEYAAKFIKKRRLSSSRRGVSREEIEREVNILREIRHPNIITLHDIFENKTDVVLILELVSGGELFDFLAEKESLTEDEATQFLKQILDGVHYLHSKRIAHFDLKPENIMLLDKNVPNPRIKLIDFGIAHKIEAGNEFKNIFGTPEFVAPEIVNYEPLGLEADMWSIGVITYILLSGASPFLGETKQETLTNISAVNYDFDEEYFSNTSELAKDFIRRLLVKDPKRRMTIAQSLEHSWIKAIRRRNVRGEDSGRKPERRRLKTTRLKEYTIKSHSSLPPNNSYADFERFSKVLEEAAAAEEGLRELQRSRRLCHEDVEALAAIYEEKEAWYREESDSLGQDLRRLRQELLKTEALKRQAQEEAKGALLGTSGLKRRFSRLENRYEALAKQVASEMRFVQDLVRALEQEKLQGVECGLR

| kinase still bound, per cent of control [1] [%] | kinase still bound, per cent of control [2] [%] | kinase still bound, per cent of control [3] [%] | kinase still bound, per cent of control [4] [%] | kinase still bound, per cent of control [5] [%] | kinase still bound, per cent of control [6] [%] | kinase still bound, per cent of control [7] [%] | kinase still bound, per cent of control [10] [%] | kinase still bound, per cent of control [11] [%] | kinase still bound, per cent of control [12] [%] | kinase still bound, per cent of control [13] [%] | kinase still bound, per cent of control [15] [%] | kinase still bound, per cent of control [16] [%] | kinase still bound, per cent of control [17] [%] | kinase still bound, per cent of control [18] [%] | kinase still bound, per cent of control [20] [%] | kinase still bound, per cent of control [21] [%] | kinase still bound, per cent of control [22] [%] | kinase still bound, per cent of control [23] [%] | kinase still bound, per cent of control [25] [%] | Compound | other results |
| --- | --- | --- | --- | --- | --- | --- | --- | --- | --- | --- | --- | --- | --- | --- | --- | --- | --- | --- | --- | --- | --- |
| 29 | 100 | 100 | 100 | 100 | 100 | 1.3 | 0.15 | 100 | 100 | 100 | 100 | 3.4 | 2.6 | 1.7 | 3.8 | 18 | 18 | 100 | 25 | CNC(=O)c1ccc(Nc2cc(Nc3ccccc3S(=O)(=O)C(C)C)c3cc[nH]c3n2)nc1 | kinase still bound, per cent of control [8]: 100%; kinase still bound, per cent of control [9]: 1.8%; kinase still bound, per cent of control [14]: 100%; kinase still bound, per cent of control [19]: 100%; kinase still bound, per cent of control [24]: 100%; kinase still bound, per cent of control [26]: 100%; kinase still bound, per cent of control [27]: 100%; kinase still bound, per cent of control [28]: 100%; kinase still bound, per cent of control [29]: 8.9%; kinase still bound, per cent of control [30]: 100%; kinase still bound, per cent of control [31]: 100%; kinase still bound, per cent of control [32]: 4.6%; kinase still bound, per cent of control [33]: 0.2%; kinase still bound, per cent of control [34]: 100%; kinase still bound, per cent of control [35]: 19%; kinase still bound, per cent of control [36]: 19% |
| 6 | 100 | 100 | 100 | 100 | 100 | 100 | 100 | 100 | 100 | 100 | 100 | 100 | 100 | 100 | 26 | 100 | 100 | 20 | 100 | CCN(CC)CCCCNc1ncc2cc(-c3cc(OC)cc(OC)c3)c(NC(=O)NC(C)(C)C)nc2n1 | kinase still bound, per cent of control [9]: 100%; kinase still bound, per cent of control [24]: 100%; kinase still bound, per cent of control [26]: 100%; kinase still bound, per cent of control [28]: 36%; kinase still bound, per cent of control [29]: 100%; kinase still bound, per cent of control [30]: 21%; kinase still bound, per cent of control [31]: 100%; kinase still bound, per cent of control [32]: 100%; kinase still bound, per cent of control [33]: 12%; kinase still bound, per cent of control [34]: 100%; kinase still bound, per cent of control [35]: 100%; kinase still bound, per cent of control [36]: 100% |
| 0.1 | 100 | 100 | 100 | 100 | 100 | 100 | 100 | 100 | 100 | 100 | 100 | 100 | 7.2 | 100 | 0.6 | 13 | 100 | 100 | 100 | C=CC(=O)Nc1ccc(CN(C(=O)Nc2c(Cl)c(OC)cc(OC)c2Cl)c2cc(Nc3ccc(N4CCN(C)CC4)cc3)ncn2)cc1 | kinase still bound, per cent of control [8]: 0.1%; kinase still bound, per cent of control [9]: 2.3%; kinase still bound, per cent of control [14]: 100%; kinase still bound, per cent of control [19]: 100%; kinase still bound, per cent of control [24]: 100%; kinase still bound, per cent of control [26]: 100%; kinase still bound, per cent of control [27]: 100%; kinase still bound, per cent of control [28]: 9.7%; kinase still bound, per cent of control [29]: 100%; kinase still bound, per cent of control [30]: 0.45%; kinase still bound, per cent of control [31]: 100%; kinase still bound, per cent of control [32]: 100%; kinase still bound, per cent of control [33]: 0%; kinase still bound, per cent of control [34]: 100%; kinase still bound, per cent of control [35]: 100%; kinase still bound, per cent of control [36]: 100% |

| Compound | kinase still bound, per cent of control [1] [%] | kinase still bound, per cent of control [2] [%] | kinase still bound, per cent of control [3] [%] | kinase still bound, per cent of control [4] [%] | kinase still bound, per cent of control [5] [%] | kinase still bound, per cent of control [6] [%] | kinase still bound, per cent of control [7] [%] | kinase still bound, per cent of control [10] [%] | kinase still bound, per cent of control [11] [%] | kinase still bound, per cent of control [12] [%] | kinase still bound, per cent of control [13] [%] | kinase still bound, per cent of control [15] [%] | kinase still bound, per cent of control [16] [%] | kinase still bound, per cent of control [17] [%] | kinase still bound, per cent of control [18] [%] | kinase still bound, per cent of control [20] [%] | kinase still bound, per cent of control [21] [%] | kinase still bound, per cent of control [22] [%] | kinase still bound, per cent of control [23] [%] | kinase still bound, per cent of control [25] [%] | other results |
| --- | --- | --- | --- | --- | --- | --- | --- | --- | --- | --- | --- | --- | --- | --- | --- | --- | --- | --- | --- | --- | --- |
| Cc1n[nH]c2ccc(-c3cncc(OC[C@@H](N)Cc4c[nH]c5ccccc45)c3)cc12 | 100 | 2.8 | 100 | 2.3 | 6.2 | 100 | 14 | 0 | 23 | 100 | 100 | 0.2 | 100 | 100 | 100 | 100 | 100 | 30 | 100 | 100 | kinase still bound, per cent of control [8]: 100%; kinase still bound, per cent of control [14]: 100%; kinase still bound, per cent of control [19]: 0.05%; kinase still bound, per cent of control [26]: 100%; kinase still bound, per cent of control [27]: 100%; kinase still bound, per cent of control [28]: 100%; kinase still bound, per cent of control [29]: 100%; kinase still bound, per cent of control [30]: 100%; kinase still bound, per cent of control [31]: 100%; kinase still bound, per cent of control [32]: 100%; kinase still bound, per cent of control [33]: 31%; kinase still bound, per cent of control [34]: 100%; kinase still bound, per cent of control [35]: 100%; kinase still bound, per cent of control [36]: 3.2% |
